{"source": "paper PMC9863691", "about": "“A Novel Ferroptosis Inhibitor UAMC-3203, a Potential Treatment for Corneal Epithelial Wound” (Pharmaceutics, 2022)", "key": {"[1]": {"test": "chemical stability of 100 µM solution in PBS", "assay_type": "physicochemical", "protocol": "The chemical stability of 100 µM UAMC-3203 in PBS (pH 7.4) was investigated for 30 days as described previously. Briefly, four batches with triplicates were stored at 4, 25, or 37 °C with light protection and at 25 °C without light protection. Separate solutions were used for pH-dependent stability studies. Samples were collected, and pH was measured at various times. The samples were stored at −20 °C until HPLC analysis.\nThe quantitation of UAMC-3203 was performed with […] reverse-phase HPLC system consisting of a degasser (G1379B), multi-sampler (G1367D), a binary pump (G1312B), a thermostat (G1316B), and a diode array detector (DAD) detector (G1315C). A Zorbax Eclipse XDB-C18 (4.6 × 50 mm, 4 μm; Agilent Technologies, Santa Clara, CA, USA) column was used for the analyses. The mobile phase was composed of 0.1% […] (Sigma-Aldrich, St. Louis, MO, USA) in Milli-Q-H2O and 0.1% […] in acetonitrile (LC-MS Chromasolv, Honeywell, Riedel-de Haen, Seelze, Germany) (65:35% v/v). Isocratic analysis was performed at a flow rate of 1 mL/min. The injection volume was 5 μL, and the detection wavelength was 240 nm."}, "[2]": {"system": "human corneal epithelial (HCE) cells", "test": "in vitro scratch assay", "assay_type": "cell-based", "settings": "for HCE cell migration (%): 72 h, negative control 55.6 ± 17.6%", "protocol": "In vitro scratch assay was performed in confluent HCE monolayer as previously reported. HCE cells were seeded on 24-well plates at 1 × 10^5 cells/well incubated for 24 h. The monolayer was scratched with sterile 10 µL pipette tips perpendicular to the lines to create a consistent cell-free area. The cells were washed three times with pre-warmed PBS to remove detached cells. The cells were then exposed to UAMC-3203 at different concentrations (10 nM, 1 µM, 10 µM, 50 µM) in serum-free DMEM (Dulbecco’s Modified Eagle Medium): F12 media that was supplemented with 1% penicillin-streptomycin solution […] penicillin, 0.1 mg/mL streptomycin (Corning, Ref 30-002-CI, Mediatech Inc., Discovery Boulevard, Manassas, VA, USA). Serum-free medium was used as a negative control, and 1.5% fetal bovine serum (FBS 10270, Gibco by Life Technologies, Carlsbad, CA, USA) supplemented medium was used as a positive control. The well plates were then transferred to Cell-IQ (CM Technologies Limited, Tampere, Finland) and maintained in standard tissue culture conditions (37 °C, 5% CO2-atmosphere).\nImages were taken immediately after scratch (less than 1 h) and at 6, 12, 24, 30, 42, 48, and 72 h and analyzed by Cell-IQ analyzer. Three independent experiments were performed, using two to three wells for each stimulating condition. Cell migration (A%) was calculated as follows:(1) A%=A0−At/A0×100 where A0 and At represent the wound areas at 0 h and each timepoint, respectively."}, "[3]": {"system": "alkali burn corneal wounds in ex vivo mouse eyes", "test": "corneal epithelial wound healing in ex vivo mouse eyes", "design": "species or system C57BL/6 mice", "settings": "for initial wound area: 0–2 h after wound", "from_the_text": "For the study, C57BL/6 mice (Laboratory Animal Centre, the University of Eastern Finland) were euthanized, and the eyes were excised carefully with sterile forceps and micro-scissors to avoid any damage to the cornea. The eyes were transported in ice-cold Dulbecco’s modified Eagle’s Medium/Ham’s F12 (DMEM/F-12, Gibco, Life Technologies, Carlsbad, CA, USA). Then the eyes were adhered to a Petri dish with tissue adhesive (3M Vetbond, St. Paul, MN, USA). The corneal epithelial wound was produced by placing an alkali soaked (0.5% sodium hydroxide) Whitman filter paper of 2 mm diameter on the corneal surface for 2 min, as reported earlier. After removal of the filter paper, the remaining epithelium on the alkali-exposed surface was carefully removed with a micro scalpel, and the eyes were rinsed with PBS. Pre-warmed UAMC-3203 (10 mL of 10 nM, 1µM, 10 µM, and 50 µM solutions) was added in serum-free media that was supplemented with 1% penicillin-streptomycin solution ([…], 0.1 mg/mL streptomycin) (Corning, Ref 30-002-CI, Mediatech Inc., Discovery Boulevard, Manassas, VA, USA) to the Petri dishes so that the eyes were submerged. The serum-free medium without UAMC-3203 was used as the negative control, and the medium with 10% FBS was used as the positive control. The samples were cultivated under standard tissue culture conditions (37 °C, 5% CO2-atmosphere, and 95% relative humidity) for 48 h. In order to measure the wound area, images were taken with a Zeiss Axio Scope A1 microscope (Carl Zeiss Microscopy GmbH, Oberkochen, Germany) at different time points (initial (in less than 2 h after wound), 6, 24, 30, and 48 h). For imaging, the media was removed from the dish, and 0.1% fluorescein (2 µL) was added to the corneal surface, followed by PBS (10 µL) to rinse excess fluorescein. A clean tissue was then used to soak excess fluorescein and PBS, and the medium was added again to the dish after imaging. The medium was changed after 24 h. The wound area was quantified with Fiji software."}, "ferroptosis": {"system": "ferroptosis", "design": "method as in PMID 30354101", "settings": "read-out: in vitro potency IC50 (ferroptosis); cited from earlier work"}, "[4]": {"settings": "pH 7.4"}, "[5]": {"system": "mouse model of (multi)organ dysfunction and death", "design": "method as in PMID 35210435", "settings": "cited from earlier work"}}}
{"smiles": "O=S(=O)(NCCN1CCNCC1)c1ccc(NC2CCCCC2)c(NCc2ccccc2)c1", "note": "[UAMC-3203]", "values": [{"measurement": "% of initial concentration at day 30", "setting": "[1]; 100 µM in PBS pH 7.4, various temperatures and light exposure conditions", "result": "about 90%"}, {"measurement": "pH of the solution during 30 days", "setting": "[1]; starting pH 7.4, all conditions", "result": "7.5–7.6"}, {"measurement": "HCE cell migration (%)", "setting": "[2]; 10 nM", "result": "84.9 ± 12.5", "unit": "%"}, {"measurement": "HCE cell migration (%)", "setting": "[2]; 1 µM", "result": "76.6 ± 15.2", "unit": "%"}, {"measurement": "cell migration compared to negative control", "setting": "[2]; 10 µM", "result": "no notable difference at any time point"}, {"measurement": "change of scratch area", "setting": "[2]; 50 µM", "result": "did not cause any changes in the scratch area"}, {"measurement": "optimal concentration for corneal epithelial wound healing effect in vitro", "setting": "[2]; in vitro", "result": 10, "unit": "nM"}, {"measurement": "initial wound area", "setting": "[3]; 10 nM", "result": "2.59 ± 0.27", "unit": "mm^2"}, {"measurement": "wound area at 48 h", "setting": "[3]; 10 nM", "result": "0.22 ± 0.16", "unit": "mm^2"}, {"measurement": "wound area compared to negative control", "setting": "[3]; 10 nM, p = 0.03", "result": "significantly lower wound area at 48 h"}, {"measurement": "wound healing", "setting": "[3]; 10 nM–10 µM", "result": "> 85", "unit": "%"}, {"measurement": "wound area compared to negative control", "setting": "[3]; 1 µM", "result": "no notable difference at any time point"}, {"measurement": "initial wound area", "setting": "[3]; 1 µM", "result": "2.46 ± 0.42", "unit": "mm^2"}, {"measurement": "wound area at 48 h", "setting": "[3]; 1 µM", "result": "0.35 ± 0.3", "unit": "mm^2"}, {"measurement": "initial wound area", "setting": "[3]; 10 µM", "result": "2.44 ± 0.52", "unit": "mm^2"}, {"measurement": "wound area at 48 h", "setting": "[3]; 10 µM", "result": "0.10 ± 0.21", "unit": "mm^2"}, {"measurement": "wound area compared to negative control", "setting": "[3]; 10 µM, p ≤ 0.005", "result": "significant difference in wound area at 24–48 h"}, {"measurement": "change of corneal epithelial wound area", "setting": "[3]; 50 µM", "result": "did not cause any changes in the corneal epithelial wound area"}, {"measurement": "optimal concentration for wound healing", "setting": "[3]; ex vivo", "result": 10, "unit": "µM"}, {"measurement": "IC50", "setting": "ferroptosis", "result": 10, "unit": "nM"}, {"measurement": "Log D7.4", "setting": "[4]", "result": 0.95}, {"measurement": "efficacy compared to Fer-1", "setting": "[5]", "result": "more effective"}]}
